{
  "source": "patent US7696238B2",
  "about": "“Substituted benzo[d]isoxazol-3-yl amine compounds as analgesics” (Gruenenthal GmbH, priority 2005, dated 2010)",
  "key": {"[1]": {"target": "T1, KCNQ2/3 ion channel (KCNQ2/3-expressing CHO-K1 cells) (Homo sapiens, UniProt O43525+O43526)", "T1 construct": "expressed in transfected cells; host or cells: CHO-K1", "test": "Fluorescence assay (FLIPR instrument, membrane potential dye) for substances acting agonistically on the KCNQ2/3 ion channel", "type": "cell-based", "details": "difference between maximum and minimum values, agonistic action detected from a value of −40 (and below)", "description": "Pharmacological Test Methods I. Fluorescence Assay (FLIPR™ Instrument) for the Identification of Substances Acting Agonistically on the KCNQ2/3 Ion Channel\nOn the day before the experiment, KCNQ2/3-expressing CHO-K1 cells and CHO-K1 empty strain cells were seeded out onto coated poly-D-lysine black/clear plates (Falcon/BD Company; Order No.: 356640) in a concentration of 20000 cells/100 μl MEM alpha, 50 ml FCS, 5.5 ml PIS/G/solution (100×) and then incubated for 20-24 hours in an incubator (37° C., 5% CO2). On the day of the experiment the HBSS/hepes working solution and the FMP/HBSS/hepes mixture (Membrane Potential Assay Kit Red (FMP), bulk format Cat. No. R8123) were initially prepared according to the following protocol:\n• 1000 ml 1× HBSS buffer (Hank's Balanced Salt Solution (1×) (Gibco; No. 14025)+10 ml hepes (1M stock solution, pH 7.4; hepes Na salt (Sigma Company; No. H7006-500 g; storage at 4° C. in a refrigerator) 2. 1× FMP/HBSS/hepes working solution: • 6 ml HBSS/hepes buffer are added to 5 ml of the FMP solution stored at −20° C. (preparation see below; thawing out at room temperature). The test substances (2 mM batch solution in 100% DMSO) contained in drug plates (Costar 96-well plates, catalogue No. 3795) were then diluted by adding HBSS/hepes buffer to a concentration of 30 μM (3× concentrated). The assay plates on which the cells grow were washed once with 200 μl HBSS/hepes (Cellwash Washer, Labsystems Company, catalogue No. 5161550) and the remaining volume was removed by tapping out the inverted plate twice. 100 μl of the FMP/HBSS/hepes working solution were then added in each case to the cell plates and incubated for 1 hour in the CO2 incubator at 37° C. and 5% CO2. The measurements are then carried out with a FLIPR III instrument from the Molecular Devices company (96-format, using the 540-590 nm band-pass filter in the #2 localization). In the experimental setup of the FLIPR software, filter #2 should be selected. The cell plates and the substance plates were fed alternately into the input stack. A signal test was carried out in each case with the cell plates before adding the substance. The test substances were then added via the pipetting unit of the FLIPR (added volume 50 μl, 3× concentrated, end concentration 10 μM) to the cavities of the cell plates in a total volume of 150 μl/well. The threshold data of the FLIPR program were as follows:\nThe pipette tips were washed after each pipetting procedure 3 times with 1% DMSO in water. The times of the measurement intervals after addition of the test substances are as follows:\nTotal measurement time: 6 min/plate\nThe test samples were evaluated by calculating the difference between the maximum and minimum values. EC50/IC50 values are calculated using the Graph Pad Prism software.\nPreparation of the membrane potential loading buffer (membrane potential assay kit red (FMP), bulk format cat. No. R8123) according to the manufacturer's instructions:\n10 ml of the 10× assay buffer (component B) were diluted with 90 ml of sterile water and then adjusted to pH 7.4 with 1.0N NaOH (1× assay buffer). One vessel with the FLIPR membrane potential assay component A was completely dissolved in 100 ml 1× assay buffer and thoroughly mixed for 10 minutes with a magnetic stirrer. 5 ml aliquots were then stored at −20° C. (storage shelf life ca. 2 weeks).\nAn agonistic action can be detected starting from a value of −40 (and below)."}, "[2]": {"target": "T2, hKCNQ2/3 (stably transfected hKCNQ2/3 CHO-K1 cell line) (Homo sapiens, UniProt O43525+O43526)", "T2 construct": "expressed in transfected cells; host or cells: CHO-K1", "test": "Voltage clamp (patch-clamp) measurements, current increase relative to retigabin", "type": "cell-based", "details": "test substance 10 μM at −40 mV; current increase standardized to retigabin (10 μM) effect", "description": "II. Voltage Clamp Measurements\nIn order to confirm electrophysiologically a KCNQ2/3 agonistic action of the substances, patch-clamp measurements [see Hamill O P, Marty A, Neher E, Sakmann B, Sigworth F J: “Improved patch-clamp techniques for high-resolution current recording from cells and cell-free membrane patches”, Pflugers Arch. 1981 August; 391(2):85-100] were carried out in the voltage clamp mode on a stably transfected hKCNQ2/3 CHO-K1 cell line. After formation of the gigaseal the cells were first of all clamped at a holding potential of −60 mV. Depolarising voltage jumps were then applied up to a potential of +20 mV (increment: 20 mV, duration: 1 second), in order to confirm the functional expression of KCNQ2/3 typical currents. The substances were tested at a potential of −40 mV. The current increase induced by retigabin (10 μM) was first of all recorded on each cell at −40 mV as positive control. After completely washing out the retigabin effect (duration: 80 sec) the test substance (10 μM) was applied. The current increase induced by the test substance was standardized to the retigabin effect and stated as relative efficacy (see below)."}},
  "data": [
    {"smiles": "CCCCc1ccc(CNc2noc3cc(Cl)ccc23)cc1", "note": "[Example 161, (4-butylbenzyl)-(6-chloro-benzo[d]isoxazol-3-yl)-amine]", "values": [
      {"measurement": "FLIPR membrane potential fluorescence change (ΔF %, max minus min); negative values indicate KCNQ2/3 agonism", "setting": "[1]", "value": "−40", "unit": "%"},
      {"measurement": "Voltage clamp: relative efficacy with respect to retigabin [10 μM]", "setting": "[2]", "value": 0.61}
    ]}
  ]
}
